We go through 13 compounds from the NIST ThermoML archive (doi:10.1021/je2007378).

± gives the expanded uncertainty stated by the source.

Assay in the first data set: not given
Particulars: 298.15 K; 101.33 kPa; Liquid; Vibrating tube method.
Regarding `C[Si]1(C)O[Si](C)(C)O[Si](C)(C)O[Si](C)(C)O[Si](C)(C)O1` [decamethylcyclopentasiloxane], the molar volume was 0.0003889 ± 9.1e-07 m3/mol.

On to `C[Si](C)(C)O[Si](C)(C)O[Si](C)(C)O[Si](C)(C)C` [decamethyltetrasiloxane], for which the molar volume came to 0.0003662 ± 7.9e-07 m3/mol.

On to `C[Si](C)(C)O[Si](C)(C)O[Si](C)(C)O[Si](C)(C)O[Si](C)(C)C` [dodecamethylpentasiloxane], for which the molar volume is on record as 0.0004424 ± 9.7e-07 m3/mol.

For the compound `CCCCCCC` [heptane], the molar volume is on record as 0.0001474 ± 5e-08 m3/mol.

Regarding `C[Si](C)(C)O[Si](C)(C)C` [hexamethyldisiloxane], the molar volume is 0.000214 ± 6e-08 m3/mol.

Consider `C[Si]1(C)O[Si](C)(C)O[Si](C)(C)O[Si](C)(C)O1` [octamethylcyclotetrasiloxane], for which the molar volume turned out to be 0.0003121 ± 1e-07 m3/mol.

`C[Si](C)(C)O[Si](C)(C)O[Si](C)(C)C` [octamethyltrisiloxane]: the molar volume is listed as 0.0002903 ± 3e-07 m3/mol.

The nature of another data set: excess molar enthalpy (molar enthalpy of mixing); xn = mol fraction of the nth substance listed. Particulars: 298.15 K; 101 kPa; Liquid; Calvet calorimetry; x1 = 0.5.
As to `C[Si](C)(C)O[Si](C)(C)O[Si](C)(C)O[Si](C)(C)C` [decamethyltetrasiloxane] + CCCCCCC, the excess molar enthalpy turned out to be 0.239 ± 0.239 kcal/mol.

For `C[Si](C)(C)O[Si](C)(C)O[Si](C)(C)O[Si](C)(C)O[Si](C)(C)C` [dodecamethylpentasiloxane] + CCCCCCC, the excess molar enthalpy was 0.239 ± 0.239 kcal/mol.

With `C[Si](C)(C)O[Si](C)(C)C` [hexamethyldisiloxane] + CCCCCCC, the excess molar enthalpy is 1.2 ± 0.239 kcal/mol.

In the case of `C[Si](C)(C)O[Si](C)(C)O[Si](C)(C)C` [octamethyltrisiloxane] + CCCCCCC, the excess molar enthalpy turned out to be 0.239 ± 0.239 kcal/mol.

The data set is the same for the next values; noted with them: 298.15 K; 101 kPa; Liquid; Calvet calorimetry; x2 = 0.5.
Consider `C[Si]1(C)O[Si](C)(C)O[Si](C)(C)O[Si](C)(C)O[Si](C)(C)O1` [decamethylcyclopentasiloxane] + CCCCCCC, for which the excess molar enthalpy amounted to 0.239 ± 0.239 kcal/mol.

As for `C[Si]1(C)O[Si](C)(C)O[Si](C)(C)O[Si](C)(C)O1` [octamethylcyclotetrasiloxane] + CCCCCCC, the excess molar enthalpy was determined as 0.239 ± 0.239 kcal/mol.
